# Key:
# [1] = test system: B cell activation as measured by CD69 expression in Human whole blood; assay: Inhibition of B cell activation as measured by CD69 expression in Human whole blood (flow cytometry); format: cell-based; settings: heparinized human whole blood, anti-IgD antibody 30 µg/mL, 4 hours, CD69 positive cells among CD20 B cells
# Procedure: Inhibition of B cell activation as measured by CD69 expression in Human whole blood
# To test the effect of BTK inhibitors in suppressing B-cell receptor (BCR) mediated activation of B cells, we developed a flow cytometry based assay to analyze CD69 expression in B cell population in human whole blood. Freshly collected heparinized human whole blood (60 µL/well) was dispensed in 96-well U bottom plate (Greiner), treated with the test compound at a concentrations ranging from 10 µM to 0.3 nM (half log dilutions). 0.5% DMSO (Sigma, cat#D2650) was used as vehicle control. The whole blood was incubated with compounds for 1 hour, followed by stimulation with anti-IgD antibody (Goat Anti-Human IgD Antibody - affinity purified, Bethyl laboratories, cat#A80-106A) at a final concentration of 30 µg/mL at 37°C and 5% CO2 for 4 hours. Subsequently, 45 µL blood was transferred to 1.5 ml microcentrifuge tubes and 1.2 µL of anti-CD20-PE.Cy5 (BD Biosciences, cat#561761)and 1.6 µL of anti-CD69-PE (eBioscience, cat#12-0691-83) antibody were added and mixed properly by gently tapping the tubes. Blood was stained for 20 minutes at room temperature (RT). After antibody incubation, 1 mL pre-warmed 1X Lyse/Fix solution (BD Biosciences, cat#558049) was added and cells were incubated at RT for 10 minutes. Then the tubes were centrifuged at 450xg for 5 minutes at RT and supernatant was removed. Pellet was disrupted by gentle tapping, cells were washed with 1 mL freshly prepared wash buffer and centrifuged at 450xg for 5 minutes at RT. Supernatant was removed completely before resuspending cells in 200 µl of wash buffer and proceeded for acquisition in Guava Easy Cyte Mini instrument. Acquisition was done with following laser settings: FSC Gain: X 16, FSC fine gain 100%, SSC: 893V, GRN: 663V, YLW: 649V, RED: 802V, Threshold Parameters Offset: FSC 0.73 V Threshold 300 units. The cells were diluted in such a way so that cell conc. should not exceed 500 cells/µL and at least 5000 cells were acquired. Viable lymphocytes were gated from the forward and side scatter profile of cells and B cells were sub-gated based on CD20-PE.Cy5 staining. Percent of CD69-PE positive cells were calculated among B lymphocyte sub-gate using Weasel software. Percent activity for each data point was calculated using following formula: [formula]
# (§1) Percentage activity was fit using sigmoid dose response with variable slope logistic equation in GraphPad Prism 5 software to determine IC50.
# [2] = test system: B cell activation as measured by CD69 expression in mouse splenocytes; assay: Inhibition of B cell activation as measured by CD69 expression in mouse splenocytes (flow cytometry); format: cell-based; settings: C57/BL6 splenocytes, 3 µg/mL goat anti-mouse IgM, 18-20 hours, CD69 +ve cells within CD19; read-out: IC50 (nM) in B cell activation assay in Mouse spleenocytes
# Description: Inhibition of B cell activation as measured by CD69 expression in mouse splenocytes:
# To test the effect of BTK inhibitors in suppressing B-cell receptor (BCR) mediated activation of B cells, we developed a flow cytometry based assay to analyze CD69 expression in B cell population among total splenocyte from the mouse. C57/BL6 mouse spleens were dissected out and splenocytes were isolated by mincing the tissue with a syringe plunger followed by RBC lysis (0.85% ammonium chloride, (Qualigens,Cat #21405) and several washes in PBS. Finally, cell were cultured in culture medium [RPMI medium (Sigma, Cat R6504) with 10% FBS (Gibco - Cat #10270).
# Test compounds were diluted half log starting from 2 mM in 100% DMSO (Sigma, cat#D2650) (200X). 1x10^5 splenocytes were incubated with 1 µL of diluted test compounds in 200 µL culture medium in a U-bottom 96 well plate (Greiner) at 37°C with 5% CO2 for 30 minutes. Control wells received 1 µL of 100% DMSO without any compound. The cells were stimulated with 3 µg/mL goat anti-mouse IgM (Sigma, cat#M8644) and incubated for 18-20 hours. After the stimulation, cells were washed in cold PBS with 1% FBS and stained with 1:100 dilution of anti-CD69-PE (eBioscience, cat#12-0691-83) and anti-CD19-PE.Cy5 (eBioscience, cat#15-0193-83) for 1 hour on ice. Then the cells were washed 3 times with PBS with 1% FBS and analyzed by Guava Easycyte Mini flow cytometer system (Millipore). Flow cytometry data were analyzed using Weasel software (WEHI, Melbourne). B cells were gated using CD19 marker. Expression of CD69 was analyzed as percentage of CD69 +ve cells within CD19. Percent activity for each data point was calculated using following formula: [formula]
# as §1
# [3] = target: T1, Recombinant Human Bruton's tyrosine kinase (Btk) (Homo sapiens, UniProt Q06187); assay: Recombinant Human Bruton's tyrosine kinase (Btk) inhibition assay (HTRF KinEASE-TK); format: biochemical; settings: 20 ng/ml rhBtk, 77 µM ATP (KM), 1 µM TK-Biotin Substrate, 90 minutes; read-out: IC50 (nM) in recombinant hBTK assay
# T1 construct: Full length human BTK (hBTK, Genbank#NM_000061.2) was cloned into pFastBac-HTB vector; 6XHis (N); made in house; host or cells: Sf9 cells (Bac-to-Bac baculovirus expression system)
# Procedure: Recombinant Human Bruton's tyrosine kinase (Btk) inhibition assay.
# Full length human BTK (hBTK, Genbank#NM_000061.2) was cloned into pFastBac-HTB vector (Invitrogen, cat#10359-016). hBTK gene was expressed with N'-terminal 6XHis tag in Sf9 cells using Bac-to-Bac ^(R) Baculovirus expression system (Invitrogen, cat#10359-016) and the recombinant protein was purified by Ni-NTA method. The elution buffer for hBTK consisted of 50 mM Hepes pH 8.0, 300 mM NaCl, 10% glycerol, 1 mM dithiothreitol and 200 mM imidazole.
# The inhibition assays were performed using the generic tyrosine kinase assay kit from Cis Bio (HTRF® KinEASE - TK™ # 62TK0PEB). The assay is based on the principle of fluorescence resonance energy transfer (FRET) between the Europium Cryptate labeled anti-phosphotyrosine antibody and streptavidin labeled fluorophore, XL-665. In an uninhibited kinase reaction the biotinylated peptide substrate (Tk-Biotin) gets phosphorylated at an intermediate tyrosine site which is captured by anti-phosphotyrosine antibody which eventually acts as a FRET donor. The streptavidin labeled XL-665 binds strongly to the Tk-Biotin substrate and act as a FRET acceptor. The resultant FRET signal is measured at 665 nm. A ratio of this specific fluorescence (665nm) to the background fluorescence (620nm), conferred by the free antibody, is directly proportional to the kinase activity.
# The Btk inhibition assays were performed using 20 ng/ml of rhBtk in a final volume of 10µl reaction buffer containing 77 µM ATP and 1 µM TK-Biotin Substrate in 50 mM HEPES pH 7.0, 5mM MgCl2, 1mM DTT, 0.01% Tween 20 and 50nM SEB®; with a range of concentrations of the inhibitors. The kinase reaction was carried out at the KM of ATP (77 µM) as well as that of Tk-Biotin substrate (1 µM). After 90 minutes, the reaction was stopped by addition of SA-XL665 at a concentration of 62.5 nM in HTRF® detection buffer containing EDTA. Finally 5 µL of TK antibody-cryptate was added to the reaction and the plate was incubated for additional 60 minutes. The fluorescence was read using the FlexStation (Molecular Devices) with excitation at 340 nm and emissions at 620nm (for Cryptate) and 665nm (for FRET). A ratio of the 2 emissions was calculated for each well and expressed as follows: Specific signal = Ratio(Sample)−Ratio(Negative) [formula] Ratio = (665nm/620nm) × 10^4 [formula] Mean Ratio = ∑Ratio/3(triplicates) [formula]
# For each data point, % inhibition is calculated based on uninhibited reaction which is considered as 100% activity over no enzyme or substrate controls. Dose response data is then fit using a four parameter logistic equation using GraphPad Prism 5 software to determine inhibition constant 50(IC50).
# T1 sequence (Q06187 whole entry): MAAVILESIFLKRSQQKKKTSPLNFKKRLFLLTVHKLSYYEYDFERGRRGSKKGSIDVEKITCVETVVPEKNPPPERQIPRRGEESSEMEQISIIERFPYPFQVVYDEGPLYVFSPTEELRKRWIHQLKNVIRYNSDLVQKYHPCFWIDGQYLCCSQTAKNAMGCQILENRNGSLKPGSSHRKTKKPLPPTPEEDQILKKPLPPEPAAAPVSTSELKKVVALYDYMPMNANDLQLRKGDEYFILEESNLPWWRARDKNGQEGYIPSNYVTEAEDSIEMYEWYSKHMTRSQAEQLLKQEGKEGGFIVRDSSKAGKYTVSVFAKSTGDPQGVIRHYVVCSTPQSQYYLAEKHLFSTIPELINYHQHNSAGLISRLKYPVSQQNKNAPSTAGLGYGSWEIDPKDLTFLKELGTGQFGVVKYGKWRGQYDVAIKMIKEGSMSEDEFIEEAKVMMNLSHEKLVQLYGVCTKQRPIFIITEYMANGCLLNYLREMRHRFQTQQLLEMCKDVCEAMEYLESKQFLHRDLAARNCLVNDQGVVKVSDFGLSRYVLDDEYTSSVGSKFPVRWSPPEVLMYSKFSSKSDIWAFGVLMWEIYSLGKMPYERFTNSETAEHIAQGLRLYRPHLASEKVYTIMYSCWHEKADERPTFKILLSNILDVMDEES
IC50 [1] [nM],IC50 [2] [nM],IC50 [3] [nM],Compound
16.5,2.7,–,"O=C1c2c(F)cc(C3CC3)cc2OCCN1c1cc(F)cc(-c2ccnc3[nH]c(-c4ccc(CN5CCN(C6COC6)CC5)cn4)cc23)c1CO [Example 1, 8-cyclopropyl-6-fluoro-4-[5-fluoro-2-(hydroxymethyl)-3-[2-[5-[[4-(oxetan-3-yl)piperazin-1-yl]methyl]-2-pyridyl]-1H-pyrrolo[2,3-b]pyridin-4-yl]phenyl]-2,3-dihydro-1,4-benzoxazepin-5-one]"
55.9,2.7,1.9,O=C1c2c(F)cc(C3CC3)cc2OCCN1c1cc(F)cc(-c2ccnc3[nH]c(-c4ccc(CN5CCN(CC(F)(F)F)CC5)cn4)cc23)c1CO [Example 2]
54.2,2.4,0.65,"O=C1c2c(F)cc(C3CC3)cc2OCCN1c1cc(F)cc(-c2ccnc3[nH]c(-c4ccc(CN5CCN(CC(F)F)CC5)cn4)cc23)c1CO [Example 3, 8-cyclopropyl-4-[3-[2-[5-[[4-(2,2-difluoroethyl)piperazin-1-yl]methyl]-2-pyridyl]-1H-pyrrolo[2,3-b]pyridin-4-yl]-5-fluoro-2-(hydroxymethyl)phenyl]-6-fluoro-2,3-dihydro-1,4-benzoxazepin-5-one]"
–,–,0.55,"O=C1c2c(F)cc(C3CC3)cc2OCCN1c1cc(F)cc(-c2ccnc3[nH]c(-c4ccc(CN5CCOCC5)cn4)cc23)c1CO [Example 4, 8-cyclopropyl-6-fluoro-4-[5-fluoro-2-(hydroxymethyl)-3-[2-[5-(morpholinomethyl)-2-pyridyl]-1H-pyrrolo[2,3-b]pyridin-4-yl]phenyl]-2,3-dihydro-1,4-benzoxazepin-5-one]"
–,–,3,"C[C@H]1CN(Cc2ccc(-c3cc4c(-c5cc(F)cc(N6CCOc7cc(C8CC8)cc(F)c7C6=O)c5CO)ccnc4[nH]3)nc2)CCN1CC(F)F [Example 5, 8-cyclopropyl-4-[3-[2-[5-[[(3S)-4-(2,2-difluoroethyl)-3-methyl-piperazin-1-yl]methyl]-2-pyridyl]-1H-pyrrolo[2,3-b]pyridin-4-yl]-5-fluoro-2-(hydroxymethyl)phenyl]-6-fluoro-2,3-dihydro-1,4-benzoxazepin-5-one]"
–,–,2.7,"C[C@H]1CN(CC(F)F)CCN1Cc1ccc(-c2cc3c(-c4cc(F)cc(N5CCOc6cc(C7CC7)cc(F)c6C5=O)c4CO)ccnc3[nH]2)nc1 [Example 6, 8-cyclopropyl-4-[3-[2-[5-[[(2S)-4-(2,2-difluoroethyl)-2-methyl-piperazin-1-yl]methyl]-2-pyridyl]-1H-pyrrolo[2,3-b]pyridin-4-yl]-5-fluoro-2-(hydroxymethyl)phenyl]-6-fluoro-2,3-dihydro-1,4-benzoxazepin-5-one]"
–,–,1.8,"C[C@@H]1CN(Cc2ccc(-c3cc4c(-c5cc(F)cc(N6CCOc7cc(C8CC8)cc(F)c7C6=O)c5CO)ccnc4[nH]3)nc2)CCN1CC(F)F [Example 7, 8-cyclopropyl-4-[3-[2-[5-[[(3R)-4-(2,2-difluoroethyl)-3-methyl-piperazin-1-yl]methyl]-2-pyridyl]-1H-pyrrolo[2,3-b]pyridin-4-yl]-5-fluoro-2-(hydroxymethyl)phenyl]-6-fluoro-2,3-dihydro-1,4-benzoxazepin-5-one]"
–,47,2.5,"O=C1c2ccc(C3CC3)cc2OCCN1c1cc(F)cc(-c2ccnc3[nH]c(C4=CCN(C5COC5)CC4)cc23)c1CO [Example 9, 8-cyclopropyl-4-[5-fluoro-2-(hydroxymethyl)-3-[2-[1-(oxetan-3-yl)-3,6-dihydro-2H-pyridin-4-yl]-1H-pyrrolo[2,3-b]pyridin-4-yl]phenyl]-2,3-dihydro-1,4-benzoxazepin-5-one]"
–,27,4,"CC(C)(O)CN1CC=C(c2cc3c(-c4cc(F)cc(N5CCOc6cc(C7CC7)ccc6C5=O)c4CO)ccnc3[nH]2)CC1 [Example 10, 8-cyclopropyl-4-[5-fluoro-2-(hydroxymethyl)-3-[2-[1-(2-hydroxy-2-methyl-propyl)-3,6-dihydro-2H-pyridin-4-yl]-1H-pyrrolo[2,3-b]pyridin-4-yl]phenyl]-2,3-dihydro-1,4-benzoxazepin-5-one]"
–,–,1.15,"O=C1c2c(F)cc(C3CC3)cc2OCCN1c1cc(F)cc(-c2ccnc3[nH]c(-c4ccc(OC5CCN(C6COC6)CC5)cn4)cc23)c1CO [Example 11, 8-cyclopropyl-6-fluoro-4-[5-fluoro-2-(hydroxymethyl)-3-[2-[5-[[1-(oxetan-3-yl)-4-piperidyl]oxy]-2-pyridyl]-1H-pyrrolo[2,3-b]pyridin-4-yl]phenyl]-2,3-dihydro-1,4-benzoxazepin-5-one]"

# Source: patent EP3042903B1, “Substituted hetero-bicyclic compounds, compositions and medicinal applications thereof” (Impetis Biosciences Ltd., priority 2015, dated 2016)
